Key:
Type in all cases: cell-based, murine
P388 (unadapted) = experiment: Growth rate of unadapted P388 cells; conditions: unadapted P388 grown in the presence of 10^−8M drug; relative to unadapted P388 = 100
Method: (§1) P388/MET and P388/DOX resistant cell lines were developed as described in Example 7 above. Non-treated P388 cells and resistant cell lines of these cells were grown in the presence and absence of 10^−8M of MET or DOX as indicated in Table 5 below.

P388/MET = experiment: Growth rate of P388/MET resistant cells; conditions: P388/MET grown in the presence of 10^−8 drug, no lipid treatment
Method: as §1

P388/DOX = experiment: Growth rate of P388/DOX resistant cells; conditions: P388/DOX grown in the presence of 10^−8 drug, no lipid treatment
Method: as §1

In the case of COc1cccc2c1C(=O)c1c(O)c3c(c(O)c1C2=O)C[C@@](O)(C(=O)CO)C[C@@H]3O[C@H]1C[C@H](N)[C@H](O)[C@H](C)O1 [DOX, doxorubicine], the relative growth rate (P388 (unadapted)) is reported as 10 ± 5, the relative growth rate (P388/MET) is reported as 95 ± 5 and the relative growth rate (P388/DOX) is reported as 95 ± 5.
Work on CN(Cc1cnc2nc(N)nc(N)c2n1)c1ccc(C(=O)N[C@@H](CCC(=O)O)C(=O)O)cc1 [MET, methotroxeate] yielded a relative growth rate (P388 (unadapted)) of 10 ± 5, a relative growth rate (P388/MET) of 95 ± 5 and a relative growth rate (P388/DOX) of 93 ± 5.

Source: patent US6358937B1, “Method for the treatment of cancer using phosphatidic acid-comprising compositions” (Modus Biological Membranes Ltd., priority 1996, dated 2002)
